{"source": "patent US4235881A", "about": "“Method for producing high potency factor VIII” (priority 1978, dated 1980)", "origin": "cited, not measured here", "system": "Factor VIII", "details": "hemophiliacs having diminished ability to synthesize Factor VIII", "data": [{"substance": "1-Deamino-8-D-Arginine Vasopressin [dDAVP]", "values": [{"measurement": "ability to synthesize Factor VIII", "result": "increased to normal levels"}]}]}
